In ChEMBL document CHEMBL1909046, “DrugMatrix in vitro pharmacology data”:

Legend:
[1] = DRUGMATRIX: Serotonin (5-Hydroxytryptamine) 5-HT3 radioligand binding (ligand: [3H] GR-65630); assay type: cell membranes, Membrane; conditions: hek293; Not Active = under 50% inhibition at 10 µM
[2] = DRUGMATRIX: Potassium Channel [KATP] radioligand binding (ligand: [3H] Glyburide); assay type: cell membranes, Membrane; conditions: hit-t15; Not Active = under 50% inhibition at 10 µM
[3] = target: T1, Substance-K receptor (Homo sapiens, UniProt P21452); assay type: cell membranes, CHO, Membrane; also: in other assays of this panel Not Active means under 50% inhibition at 10 µM
T1 sequence (P21452 whole entry): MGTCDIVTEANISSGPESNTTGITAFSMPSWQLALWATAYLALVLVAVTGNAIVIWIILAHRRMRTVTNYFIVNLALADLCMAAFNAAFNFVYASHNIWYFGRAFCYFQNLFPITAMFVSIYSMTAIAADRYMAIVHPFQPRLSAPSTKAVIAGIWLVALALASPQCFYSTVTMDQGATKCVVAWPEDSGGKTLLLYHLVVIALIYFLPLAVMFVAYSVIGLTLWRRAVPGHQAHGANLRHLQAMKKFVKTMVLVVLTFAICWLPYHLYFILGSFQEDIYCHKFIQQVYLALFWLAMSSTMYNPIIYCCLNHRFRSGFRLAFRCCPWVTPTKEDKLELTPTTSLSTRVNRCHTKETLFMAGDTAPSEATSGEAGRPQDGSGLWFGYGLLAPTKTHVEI

[4] = target: Prostaglandin G/H synthase 1 (Homo sapiens, UniProt P23219); assay: biochemical; assay type: tissue-based, Platelet;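 also: inhibition of COX-1 enzyme activity, with arachidonic acid supplied as substrate; in other assays of this panel Not Active means under 50% inhibition at 10 µM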
[5] = target: Cytochrome P450 2E1 (Homo sapiens, UniProt P05181); conditions: bti-tn-5b1-4; also: in other assays of this panel Not Active means under 50% inhibition at 10 µM
[6] = target: Adenosine receptor A2a (Homo sapiens, UniProt P29274); assay: DRUGMATRIX: Adenosine A2A radioligand binding (ligand: […]); assay type: cell membranes, HEK293, Membrane; conditions: Not Active = under 50% inhibition at 10 µM
Sequence of Adenosine receptor A2a (P29274 whole entry): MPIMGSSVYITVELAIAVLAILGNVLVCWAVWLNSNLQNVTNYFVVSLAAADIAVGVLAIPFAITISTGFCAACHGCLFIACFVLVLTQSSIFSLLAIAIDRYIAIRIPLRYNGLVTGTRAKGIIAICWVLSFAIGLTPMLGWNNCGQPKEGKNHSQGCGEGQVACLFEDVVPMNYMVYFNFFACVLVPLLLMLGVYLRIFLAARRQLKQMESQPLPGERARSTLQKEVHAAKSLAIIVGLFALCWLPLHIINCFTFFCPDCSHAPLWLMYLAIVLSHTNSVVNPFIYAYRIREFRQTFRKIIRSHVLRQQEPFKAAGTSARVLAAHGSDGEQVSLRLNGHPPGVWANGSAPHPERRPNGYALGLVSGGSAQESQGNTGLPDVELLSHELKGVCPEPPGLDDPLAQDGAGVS

Sequence of Prostaglandin G/H synthase 1 (P23219 whole entry): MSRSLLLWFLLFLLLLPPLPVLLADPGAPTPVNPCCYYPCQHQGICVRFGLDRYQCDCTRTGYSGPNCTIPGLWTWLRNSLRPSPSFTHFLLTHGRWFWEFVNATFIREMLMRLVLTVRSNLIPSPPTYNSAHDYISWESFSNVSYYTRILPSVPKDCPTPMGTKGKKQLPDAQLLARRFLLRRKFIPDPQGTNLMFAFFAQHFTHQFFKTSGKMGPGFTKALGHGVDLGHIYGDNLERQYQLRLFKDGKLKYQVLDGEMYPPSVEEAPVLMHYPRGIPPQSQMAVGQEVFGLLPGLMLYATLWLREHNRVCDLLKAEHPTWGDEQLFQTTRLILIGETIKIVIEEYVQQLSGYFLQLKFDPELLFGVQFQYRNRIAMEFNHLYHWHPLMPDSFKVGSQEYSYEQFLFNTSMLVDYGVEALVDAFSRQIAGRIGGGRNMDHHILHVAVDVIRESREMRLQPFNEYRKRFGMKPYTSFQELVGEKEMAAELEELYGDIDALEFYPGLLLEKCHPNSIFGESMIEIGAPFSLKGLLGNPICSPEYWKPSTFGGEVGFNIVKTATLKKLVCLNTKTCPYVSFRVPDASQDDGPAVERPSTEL
Sequence of Cytochrome P450 2E1 (P05181 whole entry): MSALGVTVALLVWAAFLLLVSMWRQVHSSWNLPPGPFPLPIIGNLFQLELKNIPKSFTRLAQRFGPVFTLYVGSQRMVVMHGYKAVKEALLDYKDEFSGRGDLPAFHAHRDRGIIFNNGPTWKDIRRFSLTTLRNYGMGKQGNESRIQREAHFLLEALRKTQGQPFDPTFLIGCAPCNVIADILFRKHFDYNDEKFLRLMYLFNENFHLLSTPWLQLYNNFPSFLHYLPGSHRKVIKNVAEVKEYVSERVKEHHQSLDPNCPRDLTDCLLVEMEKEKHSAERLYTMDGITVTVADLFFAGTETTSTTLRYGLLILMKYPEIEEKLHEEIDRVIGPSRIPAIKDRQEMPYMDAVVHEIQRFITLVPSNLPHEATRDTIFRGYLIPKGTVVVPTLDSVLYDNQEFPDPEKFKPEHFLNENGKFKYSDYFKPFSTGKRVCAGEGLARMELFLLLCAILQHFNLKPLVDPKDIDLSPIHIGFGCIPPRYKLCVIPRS

Compound	IC50 [1]	Ki [1]	IC50 [2]	Ki [2]	IC50 ([3]; cho)	IC50 ([4]; platelet)	IC50 [5]	Ki [5]	IC50 ([6]; hek293)	IC50 ([4]; read-out: IC50) [µM]	IC50 ([3]; read-out: IC50) [µM]	Ki ([3]; read-out: Ki) [µM]	IC50 ([6]; read-out: IC50) [µM]	Ki ([6]; read-out: Ki) [µM]
CN/C(=N\CCSCc1nc[nH]c1C)NC#N [CIMETIDINE]	Not Active	Not Active	Not Active	Not Active	Not Active	Not Active	Not Active	Not Active	Not Active					
COc1cc(N)c(Cl)cc1C(=O)NC1CCN(CCCOc2ccc(F)cc2)CC1OC (stereo not given) [CISAPRIDE]	Not Active	Not Active	Not Active	Not Active	Not Active	Not Active	Not Active	Not Active	Not Active					
CCC(=O)O[C@]1(C(=O)CCl)[C@@H](C)C[C@H]2[C@@H]3CCC4=CC(=O)C=C[C@]4(C)[C@@]3(F)[C@@H](O)C[C@@]21C [CLOBETASOL PROPIONATE]	Not Active	Not Active	Not Active	Not Active	Not Active	Not Active	Not Active	Not Active	Not Active					
O=C1CN=C(c2ccccc2Cl)c2cc([N+](=O)[O-])ccc2N1 [CLONAZEPAM]	Not Active	Not Active	Not Active	Not Active	Not Active	Not Active	Not Active	Not Active	Not Active					
Nc1ccn([C@@H]2O[C@H](CO)[C@@H](O)[C@@H]2O)c(=O)n1 [CYTARABINE]	Not Active	Not Active	Not Active	Not Active	Not Active	Not Active	Not Active	Not Active	Not Active					
C[C@@H]1C[C@H]2[C@@H]3CCC4=CC(=O)C=C[C@]4(C)[C@@]3(F)[C@@H](O)C[C@]2(C)[C@H]1C(=O)CO [DESOXIMETASONE]	Not Active	Not Active	Not Active	Not Active	Not Active	Not Active	Not Active	Not Active	Not Active					
C[C@@H]1C[C@H]2[C@@H]3CCC4=CC(=O)C=C[C@]4(C)[C@@]3(F)[C@@H](O)C[C@]2(C)[C@@]1(O)C(=O)CO [DEXAMETHASONE]	Not Active	Not Active	Not Active	Not Active	Not Active	Not Active	Not Active	Not Active	Not Active					
CN(C)CC[C@@H](c1ccc(Cl)cc1)c1ccccn1 [DEXCHLORPHENIRAMINE]	Not Active	Not Active	Not Active	Not Active	Not Active	Not Active	Not Active	Not Active	Not Active					
C[C@@H]1CC[C@@]2(OC1)O[C@H]1[C@@H](O)[C@H]3[C@@H]4CC[C@H]5C[C@@H](O[C@@H]6O[C@H](CO)[C@H](O[C@@H]7O[C@H](CO)C(O)[C@H](O[C@@H]8OC[C@@H](O)[C@H](O)[C@H]8O)[C@H]7O[C@@H]7O[C@H](CO)[C@H](O)[C@H](O[C@@H]8O[C@H](CO)[C@@H](O)[C@H](O)[C@H]8O)[C@H]7O)[C@H](O)[C@H]6O)[C@H](O)C[C@]5(C)[C@H]4CC[C@]3(C)[C@H]1[C@@H]2C (stereo not given in full) [DIGITONIN]	Not Active	Not Active	Not Active	Not Active	Not Active	Not Active	Not Active	Not Active	Not Active					
OC(CCCN1CCCCC1)(c1ccccc1)c1ccccc1 [DIPHENIDOL]	Not Active	Not Active	Not Active	Not Active	Not Active	Not Active	Not Active	Not Active	Not Active					
C[C@H]1O[C@@H](n2cc(F)c(=O)[nH]c2=O)[C@H](O)[C@@H]1O [DOXIFLURIDINE]	Not Active	Not Active	Not Active	Not Active	Not Active	Not Active	Not Active	Not Active	Not Active					
Cn1c(=O)c2c(ncn2CC(O)CO)n(C)c1=O (stereo not given) [DYPHYLLINE]	Not Active	Not Active	Not Active	Not Active	Not Active	Not Active	Not Active	Not Active	Not Active					
CC[C@H]1CN2CCc3cc(OC)c(OC)cc3[C@@H]2C[C@@H]1C[C@H]1NCCc2cc(OC)c(OC)cc21 [EMETINE]	Not Active	Not Active	Not Active	Not Active	Not Active	Not Active	Not Active	Not Active	Not Active					
C[C@@H](CO)NC(=O)[C@@H]1C=C2c3cccc4[nH]cc(c34)C[C@H]2N(C)C1 [ERGONOVINE]	Not Active	Not Active	Not Active	Not Active	Not Active	Not Active	Not Active	Not Active	Not Active					
COC(=O)CCc1ccc(OCC(O)CNC(C)C)cc1 (stereo not given) [ESMOLOL]	Not Active	Not Active	Not Active	Not Active	Not Active	Not Active	Not Active	Not Active	Not Active					
CCC1(C)CC(=O)NC1=O (stereo not given) [ETHOSUXIMIDE]	Not Active	Not Active	Not Active	Not Active	Not Active	Not Active	Not Active	Not Active	Not Active					
C#C[C@]1(OC(C)=O)CC[C@H]2[C@@H]3CCC4=C[C@@H](OC(C)=O)CC[C@@H]4[C@H]3CC[C@@]21C [ETHYNODIOL DIACETATE]	Not Active	Not Active	Not Active	Not Active	Not Active	Not Active	Not Active	Not Active	Not Active					
C=CCc1ccc(O)c(OC)c1 [EUGENOL]	Not Active	Not Active	Not Active	Not Active	Not Active	Not Active	Not Active	Not Active	Not Active					
CC(C(=O)O)c1cccc(Oc2ccccc2)c1 (stereo not given) [FENOPROFEN]	Not Active	Not Active	Not Active	Not Active	Not Active		Not Active	Not Active	Not Active	0.145				
CC(C)(C)NC(=O)[C@H]1CC[C@H]2[C@@H]3CC[C@H]4NC(=O)C=C[C@]4(C)[C@H]3CC[C@]12C [FINASTERIDE]	Not Active	Not Active	Not Active	Not Active	Not Active	Not Active	Not Active	Not Active	Not Active					
Nc1ccn([C@@H]2O[C@H](CO)[C@@H](O)C2(F)F)c(=O)n1 [GEMCITABINE]	Not Active	Not Active	Not Active	Not Active	Not Active	Not Active	Not Active	Not Active	Not Active					
N=C(N)NC(=O)Cc1c(Cl)cccc1Cl [GUANFACINE]	Not Active	Not Active	Not Active	Not Active	Not Active	Not Active	Not Active	Not Active	Not Active					
Oc1c(Cl)cc(Cl)c(Cl)c1Cc1c(O)c(Cl)cc(Cl)c1Cl [HEXACHLOROPHENE]	Not Active	Not Active	Not Active	Not Active		Not Active	Not Active	Not Active			4.14	1.38	1.61	0.906
NNc1nncc2ccccc12 [HYDRALAZINE]	Not Active	Not Active	Not Active	Not Active	Not Active	Not Active	Not Active	Not Active	Not Active					
COC1=C(OC)C(=O)C(CCCCCCCCCCO)=C(C)C1=O [IDEBENONE]	Not Active	Not Active	Not Active	Not Active	Not Active	Not Active	Not Active	Not Active	Not Active					
CC(C)NNC(=O)c1ccncc1 [IPRONIAZID]	Not Active	Not Active	Not Active	Not Active	Not Active	Not Active	Not Active	Not Active	Not Active					
Cc1c(OCC(F)(F)F)ccnc1C[S+]([O-])c1nc2ccccc2[nH]1 (stereo not given) [LANSOPRAZOLE]	Not Active	Not Active	Not Active	Not Active	Not Active	Not Active	Not Active	Not Active	Not Active					
